Consider six molecules from ChEMBL document CHEMBL1125127 (J Med Chem, 1990).

What is called IC50 is the midpoint of a concentration-inhibition curve.

One assay deals with Canis familiaris. As to the kind of experiment: Percent change in FRP from control at active dose 10 mg/kg administered intraperitoneally in anesthetized dogs. Type of assay: functional, Canis lupus familiaris. To be noted: route intraperitoneal.
Regarding `OC(CNCCOc1ccc(-n2ccnc2)cc1)CONC(C1CC1)C1CC1` (stereo unspecified), the Change was determined as 20%.

For another assay, the target named is Adrenergic receptor beta (Canis lupus familiaris). As to the kind of experiment: Tested for beta-receptor binding inhibition from canine ventricular tissue, using [3H]dihydroalprenolol as the radioligand in anesthetized dogs.
Conditions: not given
In turn, `OC(CNCCOc1ccc(-n2ccnc2)cc1)CONC(C1CC1)C1CC1` (stereo unspecified) had an IC50 of 0.3 µM.
On to `COc1ccccc1C(O)CNCCOc1ccc(-n2ccnc2)cc1` (stereo unspecified), for which the IC50 came out at 3.7 µM.
Same read-out and setting: the figure for `OC(CNCCOc1ccc(-n2ccnc2)cc1)COc1ccccc1` (stereo unspecified) is 0.04 µM.

Test system in another assay: not listed separately
The experiment in a line: Ratio of number of active animals to number of treated in anesthetized dogs; No of animals tested=2. Type of assay: functional.
Conditions: not given
As to `CS(=O)(=O)Nc1ccc(CNCC(O)COc2ccccc2)cc1` (stereo unspecified), the Ratio was 0.

A further assay deals with Canis familiaris. The experiment in a line: Percent change in heart rate (HR) from control at active dose 10 mg/kg administered intraduodenally. To be noted: route intraduodenal.
As to `OC(CNCCOc1ccc(-n2ccnc2)cc1)CONC(C1CC1)C1CC1` (stereo unspecified), the Change is given as -18%.

In another assay the target is T1, Beta-2 adrenergic receptor (Canis lupus familiaris, UniProt P54833).
T1 sequence (P54833 whole entry): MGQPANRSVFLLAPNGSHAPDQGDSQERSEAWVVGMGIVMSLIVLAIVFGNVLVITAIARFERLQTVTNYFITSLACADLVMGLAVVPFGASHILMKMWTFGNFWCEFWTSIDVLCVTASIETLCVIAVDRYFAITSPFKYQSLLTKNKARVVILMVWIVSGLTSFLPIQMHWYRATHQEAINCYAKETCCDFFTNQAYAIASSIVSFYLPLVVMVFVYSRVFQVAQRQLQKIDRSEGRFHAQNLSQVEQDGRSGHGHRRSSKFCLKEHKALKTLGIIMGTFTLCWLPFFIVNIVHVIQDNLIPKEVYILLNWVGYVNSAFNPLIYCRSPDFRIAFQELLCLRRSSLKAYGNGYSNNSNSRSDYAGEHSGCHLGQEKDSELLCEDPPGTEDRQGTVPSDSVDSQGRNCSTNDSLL
Assay: not given
Conditions: not given
`COCCc1ccc(OCC(O)CNCc2ccc(NS(C)(=O)=O)cc2)cc1` (stereo unspecified) showed an IC50 of 46 µM.
Still for that read-out and setting: next, `Cc1ccccc1OCC(O)CNCc1ccc(-n2ccnc2)cc1` (stereo unspecified): 1.2 µM.

The test system of the next assay is Canis familiaris. As to the kind of experiment: Concentration at which maximum change in […] was observed from control value in anesthetized dogs; The maximum observed change APD95 from control value and concentration at 30 uM when this occurred. In kind it is functional, Canis lupus familiaris.
Conditions: not given
Take `COc1ccccc1C(O)CNCCOc1ccc(-n2ccnc2)cc1` (stereo unspecified): the Max delta turned out to be 33%.

The target of the next assay is T1, Beta-2 adrenergic receptor. As to the kind of experiment: Beta2-receptor selectivity in canine lung tissue in anesthetized dogs. In kind it is functional.
Conditions: not given
Take `OC(CNCCOc1ccc(-n2ccnc2)cc1)COc1ccccc1` (stereo unspecified): the IC50 was 0.28 µM.

For the next assay, the system named is Canis familiaris. As to the kind of experiment: Maximum change in […] from control value in anesthetized dogs; 10 uM. Type of assay: functional, Canis lupus familiaris.
Conditions: not given
Turning to `CS(=O)(=O)Nc1ccc(CNCC(O)COc2ccccc2)cc1` (stereo unspecified), the Max delta was found to be 40%.
On the same count and under the same terms, next, `OC(CNCCOc1ccc(-n2ccnc2)cc1)CONC(C1CC1)C1CC1` (stereo unspecified): 87%.
The same measure, in the same setting: next, `COCCc1ccc(OCC(O)CNCc2ccc(NS(C)(=O)=O)cc2)cc1` (stereo unspecified): 57%; `Cc1ccccc1OCC(O)CNCc1ccc(-n2ccnc2)cc1` (stereo unspecified): 65%; `OC(CNCCOc1ccc(-n2ccnc2)cc1)COc1ccccc1` (stereo unspecified): 21%.

The next assay addresses Beta-1 adrenergic receptor (Canis familiaris).
Assay: not given
Conditions: not given
Regarding `COCCc1ccc(OCC(O)CNCc2ccc(NS(C)(=O)=O)cc2)cc1` (stereo unspecified), it took 7.3 µM to reach half-maximal inhibition (IC50).
Turning to `Cc1ccccc1OCC(O)CNCc1ccc(-n2ccnc2)cc1` (stereo unspecified), the IC50 was determined as 0.8 µM.

The subject of a further assay is Canis familiaris. As to the kind of experiment: Percent change in FRP from control at active dose 1.0-10 mg/kg administered intravenously.
Conditions: not given
As to `OC(CNCCOc1ccc(-n2ccnc2)cc1)CONC(C1CC1)C1CC1` (stereo unspecified), the Change was determined as 3%.

A further assay concerns the target Beta adrenergic receptor (Canis familiaris).
Assay: not given
Conditions: not given
As to `CS(=O)(=O)Nc1ccc(CNCC(O)COc2ccccc2)cc1` (stereo unspecified), the half-maximal inhibitory concentration (IC50) stood at 2.9 µM.
Turning to `COCCc1ccc(OCC(O)CNCc2ccc(NS(C)(=O)=O)cc2)cc1` (stereo unspecified), the concentration for half-maximal inhibition (IC50) is 25.8 µM.
Molecule `Cc1ccccc1OCC(O)CNCc1ccc(-n2ccnc2)cc1` (stereo unspecified) gave an IC50 of 0.78 µM.

For another assay, the system named is Canis familiaris. As to the kind of experiment: Percent change in blood pressure (BP) from control at active dose 10 mg/kg administered intraperitoneally in anesthetized dogs. The note with it: route intraperitoneal. Type of assay: functional, Canis lupus familiaris.
As to `OC(CNCCOc1ccc(-n2ccnc2)cc1)CONC(C1CC1)C1CC1` (stereo unspecified), the Change was found to be 2%.

Another assay deals with Canis familiaris. The experiment in a line: Concentration that causes a 20% increase in APD95 (action potential duration at 95% repolarization) from control value in anesthetized dogs. In kind it is functional, Canis lupus familiaris.
Conditions: not given
With `CS(=O)(=O)Nc1ccc(CNCC(O)COc2ccccc2)cc1` (stereo unspecified), the C20 was less than 1 µM.
As to `OC(CNCCOc1ccc(-n2ccnc2)cc1)CONC(C1CC1)C1CC1` (stereo unspecified), the “C20 APD95” value amounted to 1.5 µM.
`COCCc1ccc(OCC(O)CNCc2ccc(NS(C)(=O)=O)cc2)cc1` (stereo unspecified) had a C20 of 0.5 µM.
In the case of `Cc1ccccc1OCC(O)CNCc1ccc(-n2ccnc2)cc1` (stereo unspecified), the C20 was 0.3 µM.
In the case of `COc1ccccc1C(O)CNCCOc1ccc(-n2ccnc2)cc1` (stereo unspecified), the “C20 APD95” value turned out to be 10.4 µM.
For `OC(CNCCOc1ccc(-n2ccnc2)cc1)COc1ccccc1` (stereo unspecified), the “C20 APD95” value stood at 8.8 µM.

The next assay relates to Canis familiaris. The experiment in a line: Percent change in heart rate (HR) from control at active dose 1.0-10 mg/kg administered intravenously in conscious dogs.
Conditions: not given
On to `OC(CNCCOc1ccc(-n2ccnc2)cc1)CONC(C1CC1)C1CC1` (stereo unspecified), for which the Change is recorded as -13%.

The next assay deals with Beta-1 adrenergic receptor (Canis lupus familiaris). As to the kind of experiment: Tested for beta1-receptor selectivity in canine cardiac tissue in anesthetized dogs.
Conditions: not given
As for `OC(CNCCOc1ccc(-n2ccnc2)cc1)COc1ccccc1` (stereo unspecified), inhibition was half-maximal at 0.04 µM (IC50).

The next assay concerns Canis familiaris. As to the kind of experiment: Percent change in blood pressure (BP) from control at active dose 1.0-10 mg/kg administered intraperitoneally in anesthetized dogs. Type of assay: functional, Canis lupus familiaris.
Conditions: not given
In the case of `OC(CNCCOc1ccc(-n2ccnc2)cc1)CONC(C1CC1)C1CC1` (stereo unspecified), the Change is reported as -5%.
